Entries after “also recorded” stand apart in the source; their conditions may differ.
How the values were obtained:
Assay type in all cases: in vivo, mouse
[1] = test system: mice lacking PSAM4; experiment: Mechanical and heat sensitivity at baseline and after CFA or sural-SNI in wildtype C57Bl/6 mice lacking PSAM4; conditions: 0.1 mpk i.p.
Description: (§1) Mechanical and heat hypersensitivity was tested in adult wildtype male and female C57Bl/6 mice (not injected with mCCK-PSAM4 virus) before and after intraperitoneal injection of (i.p) varenicline (0.1 milligram per kilogram (mpk) (FIG. 13). We also tested these parameters before and 2-5 days after induction of the complete Freund's adjuvant (CFA)-model of inflammatory pain and 7 days after induction of the sural version of the spared nerve injury (SNI) model of neuropathic pain (FIG. 13). Sensitivity to mechanical stimuli was tested by measuring the paw withdrawal threshold to von Frey filaments (PWT) and the paw withdrawal response to a cotton swab (percentage of response) as described previously (Peirs, C. et al. Dorsal Horn Circuits for Persistent Mechanical Pain. Neuron 87, 797-812 (2015)). Heat sensitivity was tested by measuring the withdrawal latency to a radiant heat source using the Hargreaves apparatus (PWL) as described previously (Peirs, C. et al. Dorsal Horn Circuits for Persistent Mechanical Pain. Neuron 87, 797-812 (2015)).

[2] = molecular target: T1, PSAM4 in dorsal horn CCK+ neurons (Homo sapiens, UniProt P23415+P36544, L131G/Q139L/Y217F); experiment: Baseline mechanical and heat sensitivity in mice injected with AAV8 mCCK-PSAM4 virus; conditions: 0.3 mpk i.p., 2 weeks after AAV8 mCCK-PSAM4, 30-60 minutes after drug
Description: (§2) The mouse cholecystokinin (CCK) promoter with an added chimeric intron to drive expression of α7^L131G, Q139L, Y217F GlyR (PSAM4) was packaged into AAV2/8 and injected into the dorsal horn of 3-week-old wildtype C57Bl/6 male and female mice. Injection of AAV into the dorsal horn was performed as described previously (Peirs, C. et al. Dorsal Horn Circuits for Persistent Mechanical Pain. Neuron 87, 797-812 (2015)). See FIG. 11 for a schematic of the plasmid used to produce these rAAV particles. Briefly, a 2.5 kb fragment of the mouse CCK promoter was subcloned upstream of the PSAM4 gene with the chimeric intron (135 bp) located in between.
as §1
Mice were injected unilaterally in the dorsal horn with AAV8 mCCK-PSAM4 virus and tested two weeks later. […] The ipsilateral plantar hindpaw of the mice was injected with CFA and PWTs and response frequencies tested 3 days later in the absence and presence of varenicline (0.3 mpk, i.p.).

[3] = molecular target: T1, PSAM4 in dorsal horn CCK+ neurons; experiment: CFA-induced mechanical allodynia in mice expressing mCCK-PSAM4 in the dorsal horn; conditions: 0.3 mpk i.p., 3 days after CFA
Description: as §2, with “between. […]” for “between.”

[4] = molecular target: T1, PSAM4 in dorsal horn CCK+ neurons; experiment: Sural-SNI-induced mechanical allodynia in mice expressing mCCK-PSAM4 in the dorsal horn; conditions: 0.3 mpk i.p., 7 days after sural-SNI
Description: as §2, with “between. […]” for “between.”

[5] = uninjured mice without PSAM4, 30-60 minutes after injection

T1 sequence (P36544+P23415 fused P36544:L131G/P36544:Q139L/P36544:Y217F): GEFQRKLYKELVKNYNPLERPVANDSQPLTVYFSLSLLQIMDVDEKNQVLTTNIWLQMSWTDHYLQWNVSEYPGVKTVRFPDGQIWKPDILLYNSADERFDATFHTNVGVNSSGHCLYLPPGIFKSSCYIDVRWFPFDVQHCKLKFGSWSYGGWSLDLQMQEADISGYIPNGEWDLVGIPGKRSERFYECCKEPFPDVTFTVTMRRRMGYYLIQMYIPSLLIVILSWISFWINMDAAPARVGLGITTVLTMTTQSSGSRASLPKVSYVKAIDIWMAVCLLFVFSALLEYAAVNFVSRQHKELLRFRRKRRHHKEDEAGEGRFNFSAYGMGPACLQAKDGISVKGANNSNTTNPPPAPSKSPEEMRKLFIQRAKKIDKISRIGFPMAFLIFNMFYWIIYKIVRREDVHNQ

Question: What does the source list for `c1cnc2cc3c(cc2n1)[C@@H]1CNC[C@H]3C1` [varenicline]?
Answer: heat hypersensitivity after CFA ([1]; mice without PSAM4, 2 days after CFA): no effect; mechanical hypersensitivity after CFA ([1]; mice without PSAM4, 3 days after CFA): no effect; mechanical or heat hypersensitivity after sural-SNI ([1]; mice without PSAM4, 7 days after sural-SNI): no effect; baseline PWL (withdrawal latency, Hargreaves) [1, 5]: no effect; baseline PWT (paw withdrawal threshold to von Frey filaments) [1, 5]: no effect; baseline response frequency to cotton swab [1, 5]: no effect; baseline PWL [2]: no effect; also recorded: did not alter; baseline PWT [2]: no effect; also recorded: did not alter; baseline percentage response (response frequency to cotton swab) [2]: no effect; also recorded: did not alter; PWT to von Frey filaments after CFA [3]: markedly reversed; response frequency to cotton swab after CFA [3]: markedly reversed; PWT to von Frey filaments after sural-SNI [4]: markedly reversed

From patent US11713470B2, “Targeted gene therapies for pain and other neuro-related disorders” (University of Pittsburgh—Of the Commonwealth System of …, priority 2017, dated 2023)
